Read-outs that look alike come from different tables or passages of the source.
What was measured:
[1] = test system: H630-10 human colorectal tumor cells; assay: MTT assay; format: cell-based; settings: H630-10 cells, 24 h drug exposure
Description: All culture media were supplemented with penicillin/streptomycin.

[2] = test system: H630-10 human colorectal tumor cells; assay: Clonogenic assay; format: cell-based; settings: H630-10 cells, 72 h drug exposure
Method: (§1) About one thousand viable H630 or H630-10 cells suspended in 10 mL of RPMI 1640 medium with 9% NU serum IV were grown at 37° C. in a humidified 5% CO2-air atmosphere in 100×20 mm plastic petri dishes. After 48 h, the medium was removed, and replaced with 10 mL of fresh medium containing either 5-FU, FdUMP[10], or both 5-FU and FdUMP[10]. After 72 h, the medium containing drugs was removed and replaced by fresh medium. Plates were incubated for 2 to 3 weeks with fresh medium added, if necessary, after which the medium was removed, and the clones were identified by staining with 0.1% methylene blue in 70% ethanol aqueous solution. The number of surviving colonies was counted, and calculated as a percent of controls. Each study was repeated twice.

[3] = test system: H630 human colorectal tumor cells; assay: Clonogenic assay; format: cell-based; settings: for IC50: Clonogenic assay, H630 cells, 72 h drug exposure
Method: as §1

[4] = test system: H630 human colorectal tumor cells; assay: cells; settings: NCI-H630, 24 h
Method: (§2) The antiproliferative activities of FdUMP[10] and 5-FU for the human colorectal tumor cell lines H630 and H630-10 were compared using an assay for 3-(4,5-dimethylthiazol-2-yl)-2,5-diphenyltetrazolium bromide (MTT). H630 and H630-10 cells were cultured using RPMI 1640 containing L-glutamine and supplemented with 10% Nu-serum IV. All culture media were supplemented with penicillin/streptomycin. 25,000 cells were plated (96 well flute-bottom plate) in 200 μL of medium at 37° C. overnight in an air atmosphere containing 5% CO2. The medium was replaced the next day, and cells were exposed to the drugs for 24 h. The medium was then removed from the plates and replaced with 100 μL of fresh medium and 25 μL of MTT solution (5 μg/μL in PBS) per well. Following 2 h incubation, 100)L of MTT solvent (20% w/v SDS dissolved in DMF:H2O [1:1], pH 4.7) was added to each well and the plates were incubated overnight (Senderoff et al., 1990). The plates were analyzed the following morning on a Titerek Multiscan Plus 96-well plate analyzer (v.1.4). The number of viable cells in each well containing cells treated with drug was calculated from the absorbance at 570 nm compared to untreated controls. The means and standard deviation at each concentration for each drug were calculated using standard statistical methods. MTT assays were run in duplicate or triplicate to assure the statistical significance of the results.

[5] = cited from earlier work
cells = assay: Preliminary rescue experiments on the mechanism of cytotoxicity; format: cell-based
[6] = test system: H630 human colorectal tumor cells
Method: as §2

H630 cells = assay: TUNEL assay for induction of apoptosis; format: cell-based, human; settings: TUNEL staining, H630 cells exposed for 72 h, data not shown
Method: About one million H630 cells were seeded into each of the T-75 cell culture flasks. Two days later, after two doubling times, the cells were exposed to FdUMP[10]. The cells were exposed to FdUMP[10] for 72 h, and then fixed with 1% methanol-free formaldehyde for 20 min at 0° C. The fixed-cells were then placed in a 70% ethanol solution at −20° C. for two weeks. The ethanol was then removed, and the cells were washed with PBS and incubated with TdT buffer (Promega), containing equilibration buffer, nucleotide mixture and TdT enzyme, at 37° C. for 1 hour. The reaction was terminated by addition of EDTA solution and the incubation buffer was then removed. The cells were then treated with 0.1% Triton, followed by propidium iodide containing DNase-free RNAse. The cells were kept at room temperature for 30 min, and then analyzed by flow cytometry.

| IC50 ([1]; Homo sapiens) [nM] | IC50 ([2]; Homo sapiens) [nM] | IC50 ([3]; Homo sapiens, NCI-H630) [nM] | IC50 [4] [nM] | IC50 [1] [nM] | efficiency of FdUMP[10] relative to 5-FU [6] | IC50 ([6]; MTT assay, H630 cells, 24 h drug exposure) [nM] | IC50 [2] [nM] | IC50 [3] [nM] | Compound | half-life in-vivo [5] | rescue of cells from FdUMP[10] by deoxythymidine (cells) | reversal of the effects of FdUMP[10] by uridine (cells) | effect on the growth of H630 cells as single agent ([3]; FdUMP[10] alone at 4.0×10^−8 and 6.0×10^−8 M) | cells undergoing apoptosis (H630 cells) [%] |
| --- | --- | --- | --- | --- | --- | --- | --- | --- | --- | --- | --- | --- | --- | --- |
| 27100 | 75000 | 3900 | 4870 | – | – | – | – | – | O=c1[nH]cc(F)c(=O)[nH]1 [5-FU, 5-fluorouracil, reference compound] | about 18 minutes | – | – | – | – |
| – | – | – | – | 99.5 | about 400 times | 16.9 | 71 | 250 | FdUMP[10] | – | does not rescue | partially reverse | no significant effect | ~100 |
